Experimental data: ChEMBL document CHEMBL1909046, “DrugMatrix in vitro pharmacology data”
Where a SMILES comes first, the peptide text is derived from it. Bridges are numbered along the chain shown (N, C = ends). [ ]: non-standard residue; d: D form. The star is where a group is joined. Threoninol(2S,3R) = C[C@@H](O)[C@H](CO)N*

These molecules were tested against T1, Glucocorticoid receptor (Homo sapiens, UniProt P04150) (assay: biochemical). Conditions: not given.
T1 sequence (P04150 whole entry): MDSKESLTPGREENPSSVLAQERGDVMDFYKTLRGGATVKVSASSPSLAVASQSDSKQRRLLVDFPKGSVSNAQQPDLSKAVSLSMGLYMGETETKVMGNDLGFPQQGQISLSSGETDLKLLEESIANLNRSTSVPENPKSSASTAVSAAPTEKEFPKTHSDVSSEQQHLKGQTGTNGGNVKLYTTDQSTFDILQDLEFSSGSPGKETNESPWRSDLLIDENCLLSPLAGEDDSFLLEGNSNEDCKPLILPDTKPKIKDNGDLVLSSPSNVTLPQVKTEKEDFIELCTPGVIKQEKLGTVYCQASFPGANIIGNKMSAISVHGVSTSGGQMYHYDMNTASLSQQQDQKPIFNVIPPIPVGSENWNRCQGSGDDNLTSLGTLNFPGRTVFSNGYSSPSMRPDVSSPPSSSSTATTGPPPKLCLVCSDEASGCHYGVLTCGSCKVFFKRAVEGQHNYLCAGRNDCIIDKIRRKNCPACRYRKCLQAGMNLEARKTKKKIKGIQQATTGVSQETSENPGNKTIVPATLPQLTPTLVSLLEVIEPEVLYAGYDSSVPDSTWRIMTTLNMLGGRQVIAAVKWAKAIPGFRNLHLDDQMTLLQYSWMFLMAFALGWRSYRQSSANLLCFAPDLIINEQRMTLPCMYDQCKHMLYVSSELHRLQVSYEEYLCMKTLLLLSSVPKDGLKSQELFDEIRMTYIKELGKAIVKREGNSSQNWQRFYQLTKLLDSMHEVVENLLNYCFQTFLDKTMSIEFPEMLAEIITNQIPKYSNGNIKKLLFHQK
Note: in other assays of this panel Not Active means under 50% inhibition at 10 µM.

Row | Molecule | IC50 | Ki
1 | CC1(C)O[C@@H]2C[C@H]3[C@@H]4C[C@H](F)C5=CC(=O)C=C[C@]5(C)[C@H]4[C@@H](O)C[C@]3(C)[C@]2(C(=O)CO)O1 [FLUNISOLIDE] | 5.33 nM | 2.42 nM
2 | CC1(C)O[C@@H]2C[C@H]3[C@@H]4C[C@H](F)C5=CC(=O)C=C[C@]5(C)[C@@]4(F)[C@@H](O)C[C@]3(C)[C@]2(C(=O)CO)O1 [FLUOCINOLONE ACETONIDE] | 3.13 nM | 1.42 nM
3 | CC1(C)O[C@@H]2C[C@H]3[C@@H]4C[C@H](F)C5=CC(=O)CC[C@]5(C)[C@H]4[C@@H](O)C[C@]3(C)[C@]2(C(=O)CO)O1 [FLURANDRENOLIDE] | 4.45 nM | 2.02 nM

The molecules below were run against Cytochrome P450 2D6 (Homo sapiens, UniProt P10635) (assay: not given). Conditions: not given.
Sequence of Cytochrome P450 2D6 (P10635 whole entry): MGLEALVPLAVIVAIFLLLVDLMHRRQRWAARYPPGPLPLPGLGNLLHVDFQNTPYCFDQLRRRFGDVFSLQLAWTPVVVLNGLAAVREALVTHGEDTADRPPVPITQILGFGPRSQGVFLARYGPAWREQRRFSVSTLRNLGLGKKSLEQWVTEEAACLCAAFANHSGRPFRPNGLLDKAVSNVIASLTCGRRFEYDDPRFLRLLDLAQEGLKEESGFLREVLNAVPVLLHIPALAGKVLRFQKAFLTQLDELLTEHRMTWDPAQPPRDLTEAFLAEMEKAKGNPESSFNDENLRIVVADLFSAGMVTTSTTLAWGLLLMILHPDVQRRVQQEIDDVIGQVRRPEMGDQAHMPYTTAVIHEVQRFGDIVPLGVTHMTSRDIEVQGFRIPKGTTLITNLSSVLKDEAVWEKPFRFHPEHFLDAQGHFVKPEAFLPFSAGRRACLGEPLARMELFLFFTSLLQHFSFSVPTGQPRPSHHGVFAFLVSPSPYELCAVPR

Row | Molecule | IC50
4 | N=C(Nc1ccccc1)Nc1ccccc1 | 3440 nM
5 | CCN1CC(CCN2CCOCC2)C(c2ccccc2)(c2ccccc2)C1=O (stereo not given) [DOXAPRAM] | 100 nM
6 | OC(CCN1CCCCC1)(c1ccccc1)C1CCCCC1 (stereo not given) [TRIHEXYPHENIDYL] | 2450 nM

What follows are molecules tested against T2, Androgen receptor (Rattus norvegicus, UniProt P15207) (assay: not given). Conditions: not given.
T2 sequence (P15207 whole entry): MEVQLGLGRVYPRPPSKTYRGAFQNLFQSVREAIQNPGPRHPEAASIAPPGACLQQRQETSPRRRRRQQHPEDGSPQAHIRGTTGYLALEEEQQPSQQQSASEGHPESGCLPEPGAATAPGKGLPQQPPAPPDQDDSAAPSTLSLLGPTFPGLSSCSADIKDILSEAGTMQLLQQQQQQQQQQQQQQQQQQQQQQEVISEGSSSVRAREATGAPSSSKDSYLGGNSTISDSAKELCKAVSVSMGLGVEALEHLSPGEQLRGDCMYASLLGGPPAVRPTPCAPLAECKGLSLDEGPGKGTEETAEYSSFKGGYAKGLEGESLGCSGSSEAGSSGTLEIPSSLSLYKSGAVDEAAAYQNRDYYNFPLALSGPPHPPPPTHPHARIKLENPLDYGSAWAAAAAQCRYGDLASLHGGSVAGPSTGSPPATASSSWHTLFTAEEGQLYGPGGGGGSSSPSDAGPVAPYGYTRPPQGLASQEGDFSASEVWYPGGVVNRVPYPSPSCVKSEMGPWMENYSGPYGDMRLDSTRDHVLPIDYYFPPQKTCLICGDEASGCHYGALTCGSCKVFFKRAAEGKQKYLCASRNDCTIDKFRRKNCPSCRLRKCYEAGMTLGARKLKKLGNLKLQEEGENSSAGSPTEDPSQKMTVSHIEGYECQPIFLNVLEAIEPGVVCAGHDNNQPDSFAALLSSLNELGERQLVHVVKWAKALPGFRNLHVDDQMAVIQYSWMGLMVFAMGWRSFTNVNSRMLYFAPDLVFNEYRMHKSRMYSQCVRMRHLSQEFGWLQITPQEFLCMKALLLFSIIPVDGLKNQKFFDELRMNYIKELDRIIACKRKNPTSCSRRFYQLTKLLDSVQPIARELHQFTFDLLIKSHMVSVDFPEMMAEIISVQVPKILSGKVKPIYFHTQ

Row | Molecule | IC50 | Ki
7 | CC(=O)Nc1ccc(O)cc1 [ACETAMINOPHEN] | Not Active | 
8 | COc1cc2c(c3oc(=O)c4c(c13)CCC4=O)[C@@H]1C=CO[C@@H]1O2 [AFLATOXIN] | Not Active | Not Active
9 | Cc1cc(=O)n(-c2ccccc2)n1C [ANTIPYRINE] | Not Active | 
10 | O=C1CC2(CCCC2)CC(=O)N1CCCCN1CCN(c2ncccn2)CC1 [BUSPIRONE] | Not Active | 
11 | O=NN(CCCl)C(=O)NCCCl [CARMUSTINE] | Not Active | 
12 | CC(=O)OCC(=O)[C@@]1(O)CC[C@H]2[C@@H]3CCC4=CC(=O)CC[C@]4(C)[C@H]3C(=O)C[C@@]21C [CORTISONE ACETATE] | Not Active | 
13 | O=C(O)Cc1ccccc1Nc1c(Cl)cccc1Cl [DICLOFENAC] | Not Active | 
14 | C[C@H]1O[C@@H](O[C@H]2[C@@H](O)C[C@H](O[C@H]3[C@@H](O)C[C@H](O[C@H]4CC[C@@]5(C)[C@H](CC[C@@H]6[C@@H]5CC[C@]5(C)[C@@H](C7=CC(=O)OC7)CC[C@]65O)C4)O[C@@H]3C)O[C@@H]2C)C[C@H](O)[C@@H]1O [DIGITOXIN] | Not Active | 
15 | Cn1c(=O)c2c(ncn2CC2OCCO2)n(C)c1=O [DOXOFYLLINE] | Not Active | 
16 | COc1ccc2c(c1)c(CC(=O)O)c(C)n2C(=O)c1ccc(Cl)cc1 [INDOMETHACIN] | Not Active | 
17 | Oc1ccc(OCc2ccccc2)cc1 [MONOBENZONE] | Not Active | 
18 | CC(C)(Oc1ccc(C2CCCc3ccccc32)cc1)C(=O)O (stereo not given) [NAFENOPIN] | Not Active | 
19 | CADMIUM DICHLORIDE | Not Active | Not Active

Each molecule was assayed against T1, Glucocorticoid receptor (assay: not given). Conditions: hela s3.

Row | Molecule | IC50 | Ki
20 | O=C1CC[C@H](N2C(=O)c3ccccc3C2=O)C(=O)N1 | Not Active | 
21 | N=C(Nc1ccccc1)Nc1ccccc1 | Not Active | 
22 | C[C@@H](O)[C@H](CO)NC(=O)[C@@H]1CSSC[C@H](NC(=O)[C@H](N)Cc2ccccc2)C(=O)N[C@@H](Cc2ccccc2)C(=O)N[C@H](Cc2c[nH]c3ccccc23)C(=O)N[C@@H](CCCCN)C(=O)N[C@@H]([C@@H](C)O)C(=O)N1 (H-[dF]CF[dW]KTC-{Threoninol(2S,3R)}; disulfide 2-7) | Not Active | 
23 | CCCC(=O)Nc1ccc(OCC(O)CNC(C)C)c(C(C)=O)c1 (stereo not given) [ACEBUTOLOL] | Not Active | 
24 | COc1cc2c(c3oc(=O)c4c(c13)CCC4=O)[C@@H]1C=CO[C@@H]1O2 [AFLATOXIN] | Not Active | Not Active
25 | N=C(N)NC(=O)c1nc(Cl)c(N)nc1N [AMILORIDE] | Not Active | 
26 | CCOC(=O)[C@H](CCc1ccccc1)N[C@H]1CCc2ccccc2N(CC(=O)O)C1=O [BENAZEPRIL] | Not Active | 
27 | C[C@@]12C(=O)OC(=O)[C@]1(C)[C@H]1CC[C@@H]2O1 [CANTHARIDIN] | Not Active | 
28 | O=NN(CCCl)C(=O)NCCCl [CARMUSTINE] | Not Active | 
29 | CC1=C(C(=O)O)N2C(=O)[C@@H](NC(=O)[C@H](N)c3ccccc3)[C@H]2SC1 [CEPHALEXIN ANHYDROUS] | Not Active | 
30 | ClC(Cl)Cl [CHLOROFORM] | Not Active | 
31 | C=C1CC[C@H](O)C/C1=C/C=C1\CCC[C@]2(C)[C@@H]([C@H](C)CCCC(C)C)CC[C@@H]12 [CHOLECALCIFEROL] | Not Active | 
32 | CCOC(=O)C(C)(C)Oc1ccc(Cl)cc1 [CLOFIBRATE] | Not Active | 
33 | CN(C)/N=N/c1[nH]cnc1C(N)=O [DACARBAZINE] | Not Active | 
34 | COc1ccc2c(c1)[C@]13CCCC[C@@H]1[C@H](C2)N(C)CC3 [DEXTROMETHORPHAN] | Not Active | 
35 | CC(=O)Nc1c(I)c(NC(C)=O)c(I)c(C(=O)O)c1I [DIATRIZOIC ACID] | Not Active | 
36 | C[C@H]1O[C@@H](O[C@H]2[C@@H](O)C[C@H](O[C@H]3[C@@H](O)C[C@H](O[C@H]4CC[C@@]5(C)[C@H](CC[C@@H]6[C@@H]5CC[C@]5(C)[C@@H](C7=CC(=O)OC7)CC[C@]65O)C4)O[C@@H]3C)O[C@@H]2C)C[C@H](O)[C@@H]1O [DIGITOXIN] | Not Active | 
37 | CCN1CC(CCN2CCOCC2)C(c2ccccc2)(c2ccccc2)C1=O (stereo not given) [DOXAPRAM] | Not Active | 
38 | COc1cccc2c1C(=O)c1c(O)c3c(c(O)c1C2=O)C[C@@](O)(C(=O)CO)C[C@@H]3O[C@H]1C[C@H](N)[C@H](O)[C@H](C)O1 [DOXORUBICIN] | Not Active | 
39 | COc1cccc2c1C(=O)c1c(O)c3c(c(O)c1C2=O)C[C@@](O)(C(=O)CO)C[C@@H]3O[C@H]1C[C@H](N)[C@@H](O)[C@H](C)O1 [EPIRUBICIN] | Not Active | 

Row | Molecule | IC50 | Ki
40 | NC(=O)NO [HYDROXYUREA] | Not Active | 
41 | CC(C)Cc1ccc(C(C)C(=O)O)cc1 (stereo not given) [IBUPROFEN] | Not Active | 
42 | COc1ccc2c(c1)c(CC(=O)O)c(C)n2C(=O)c1ccc(Cl)cc1 [INDOMETHACIN] | Not Active | 
43 | CCc1c2c(nc3ccc(OC(=O)N4CCC(N5CCCCC5)CC4)cc13)-c1cc3c(c(=O)n1C2)COC(=O)[C@]3(O)CC [IRINOTECAN] | Not Active | 
44 | Nc1ccn([C@@H]2CS[C@H](CO)O2)c(=O)n1 [LAMIVUDINE] | Not Active | 
45 | O=S(=O)([O-])CCS.[Na+] [MESNA] | Not Active | 
46 | CC(C)(C(=O)c1cccnc1)c1cccnc1 [METYRAPONE] | Not Active | 
47 | Oc1ccc(OCc2ccccc2)cc1 [MONOBENZONE] | Not Active | 
48 | CC(C)(Oc1ccc(C2CCCc3ccccc32)cc1)C(=O)O (stereo not given) [NAFENOPIN] | Not Active | 
49 | CC(C)[C@H]1CC[C@H](C(=O)N[C@H](Cc2ccccc2)C(=O)O)CC1 [NATEGLINIDE] | Not Active | 
50 | COC(=O)C1=C(C)NC(C)=C(C(=O)OCC(C)C)C1c1ccccc1[N+](=O)[O-] (stereo not given) [NISOLDIPINE] | Not Active | 
51 | Cc1nccn1CC1CCc2c(c3ccccc3n2C)C1=O (stereo not given) [ONDANSETRON] | Not Active | 
52 | CCn1cc(C(=O)O)c(=O)c2cc(F)c(N3CCN(C)CC3)cc21 [PEFLOXACIN] | Not Active | 
53 | O=C(C1CCCCC1)N1CC(=O)N2CCc3ccccc3C2C1 (stereo not given) [PRAZIQUANTEL] | Not Active | 
54 | CCCN(CCC)C(=O)C(CCC(=O)O)NC(=O)c1ccccc1 (stereo not given) [PROGLUMIDE] | Not Active | 
55 | NC(=O)c1cnccn1 [PYRAZINAMIDE] | Not Active | 
56 | CCCC(CCC)C(=O)O [VALPROIC ACID] | Not Active | 
57 | CCC1=C[C@@H]2CN(C1)Cc1c([nH]c3ccccc13)[C@@](C(=O)OC)(c1cc3c(cc1OC)N(C)[C@H]1[C@@](O)(C(=O)OC)[C@H](OC(C)=O)[C@]4(CC)C=CCN5CC[C@]31[C@@H]54)C2 [VINORELBINE] | Not Active | 
58 | CADMIUM DICHLORIDE | Not Active | Not Active
